Laboratory results from US20230072683A1, “PYRIDO-PYRIMIDIN DERIVATIVES AND PHARMACEUTICAL COMPOSITION, FOR USE IN PREVENTING OR TREATING PI3 KINASE RELATED DISEASES, COMPRISING SAME AS ACTIVE INGREDIENT” (BORYUNG PHARMACEUTICAL CO., LTD, priority 2019, published 2023).
Read-outs that look alike come from different tables or passages of the source.

Legend:
[1] = target: PI3K-δ (PI3K(p1108/p857) (h)) (Homo sapiens, UniProt O00329); assay: Evaluation of inhibitory activity against PI3K-δ (HTRF kinase assay); format: biochemical; details: for inhibition at 0.1 µM: read-out: EXP_VALUE(% Inhibition) PI3K-δ 0.1 μM; for inhibition at 0.01 µM: compound concentration 0.01 μM, read-out: EXP_VALUE(% Inhibition) PI3K-δ 0.01 μM
Method: <Experimental Example 1> Evaluation of Inhibitory Activity Properties Against PI3K-δ
The following experiments were performed to verify the inhibitory activity against PI3K-δ with regard to each of the compounds of Examples 1 to 441 according to the present invention.
PI3K(p1108/p857) (h) was incubated in assay buffer comprising 10 μM phosphatidylinositol-4,5-bisphosphate and Mg/ATP (at a concentration as required). The reaction was initiated by the addition of a Mg/ATP mixture, and after incubation for 30 minutes at room temperature, a stop solution comprising EDTA and phosphatidylinositol-3,4,5-triphosphate was added to stop the reaction and carry out biotinylation.
A detection buffer comprising Eu (europium)-labelled anti-GST monoclonal antibody, GST-tagged GRP1 PH domain and streptavidin-allophycocyanin was added. A plate was read in a time-resolved fluorescence mode and a homogeneous time-resolved fluorescence (HTRF) signal was determined according to HTRF=10000×(Em 665 nm/Em 620 nm).

DNA-PK(h) = DNA-PK(h) (Homo sapiens, UniProt P78527); assay: Evaluation of inhibitory activity against DNA-PK (HTRF kinase assay, GST-cMyc-p53 substrate); format: biochemical; details: for inhibition at 0.1 µM: read-out: EXP_VALUE(% Inhibition) DNA-PK(h) 0.1 μM; for inhibition at 0.01 µM: compound concentration 0.01 μM, read-out: EXP_VALUE(% Inhibition) DNA-PK(h) 0.01 μM
Method: <Experimental Example 2> Evaluation of Inhibitory Activity Properties Against DNA-PK
The following experiments were performed to verify the inhibitory activity against DNA-PK with regard to each of the compounds of Examples 1 to 441 according to the present invention.
DNA-PK(h) was subjected to an isothermal treatment in an assay buffer comprising […] GST-cMyc-p53 and Mg/ATP (at a concentration as required). The reaction was initiated by the addition of a Mg/ATP mixture, and after incubation for 30 minutes at room temperature, a stop solution comprising EDTA was added to stop the reaction. A detection buffer comprising d2-labelled anti-GST monoclonal antibody and Europium-labelled anti-phospho Ser15 antibody for phosphorylated p53 was added. A plate was read in a time-resolved fluorescence mode and a homogeneous time-resolved fluorescence (HTRF) signal was determined according to HTRF=10000×(Em 665 nm/Em 620 nm).

Sequence of PI3K-δ (PI3K(p1108/p857) (h)) (O00329 whole entry): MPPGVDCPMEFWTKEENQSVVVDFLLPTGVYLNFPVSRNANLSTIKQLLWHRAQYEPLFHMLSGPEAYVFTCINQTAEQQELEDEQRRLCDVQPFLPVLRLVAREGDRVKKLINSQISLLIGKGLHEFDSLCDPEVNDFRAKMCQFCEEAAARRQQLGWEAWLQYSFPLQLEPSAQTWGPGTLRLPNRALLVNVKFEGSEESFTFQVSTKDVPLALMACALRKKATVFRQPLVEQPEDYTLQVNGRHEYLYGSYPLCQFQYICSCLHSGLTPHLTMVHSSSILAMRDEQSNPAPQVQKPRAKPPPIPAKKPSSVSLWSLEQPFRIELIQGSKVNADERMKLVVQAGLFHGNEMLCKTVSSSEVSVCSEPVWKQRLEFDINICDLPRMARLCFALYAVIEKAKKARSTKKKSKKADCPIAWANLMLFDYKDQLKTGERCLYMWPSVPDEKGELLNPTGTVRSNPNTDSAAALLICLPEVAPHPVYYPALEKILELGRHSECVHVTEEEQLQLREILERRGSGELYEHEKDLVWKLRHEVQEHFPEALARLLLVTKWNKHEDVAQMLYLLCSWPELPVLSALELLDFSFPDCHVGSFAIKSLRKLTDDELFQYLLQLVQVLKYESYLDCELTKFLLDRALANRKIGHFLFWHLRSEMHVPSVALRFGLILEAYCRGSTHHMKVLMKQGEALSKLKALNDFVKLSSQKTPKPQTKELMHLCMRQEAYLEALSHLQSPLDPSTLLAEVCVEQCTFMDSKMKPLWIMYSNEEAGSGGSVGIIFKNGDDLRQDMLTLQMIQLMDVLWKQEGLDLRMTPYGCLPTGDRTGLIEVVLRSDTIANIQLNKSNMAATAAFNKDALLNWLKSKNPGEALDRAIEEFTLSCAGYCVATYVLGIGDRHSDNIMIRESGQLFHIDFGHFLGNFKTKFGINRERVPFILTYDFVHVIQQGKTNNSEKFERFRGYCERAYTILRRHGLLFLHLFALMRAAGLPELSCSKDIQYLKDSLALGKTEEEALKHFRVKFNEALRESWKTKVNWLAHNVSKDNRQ
Sequence of PI3K-δ (PI3K(p1108/p857) (h)) (P27986 whole entry partner): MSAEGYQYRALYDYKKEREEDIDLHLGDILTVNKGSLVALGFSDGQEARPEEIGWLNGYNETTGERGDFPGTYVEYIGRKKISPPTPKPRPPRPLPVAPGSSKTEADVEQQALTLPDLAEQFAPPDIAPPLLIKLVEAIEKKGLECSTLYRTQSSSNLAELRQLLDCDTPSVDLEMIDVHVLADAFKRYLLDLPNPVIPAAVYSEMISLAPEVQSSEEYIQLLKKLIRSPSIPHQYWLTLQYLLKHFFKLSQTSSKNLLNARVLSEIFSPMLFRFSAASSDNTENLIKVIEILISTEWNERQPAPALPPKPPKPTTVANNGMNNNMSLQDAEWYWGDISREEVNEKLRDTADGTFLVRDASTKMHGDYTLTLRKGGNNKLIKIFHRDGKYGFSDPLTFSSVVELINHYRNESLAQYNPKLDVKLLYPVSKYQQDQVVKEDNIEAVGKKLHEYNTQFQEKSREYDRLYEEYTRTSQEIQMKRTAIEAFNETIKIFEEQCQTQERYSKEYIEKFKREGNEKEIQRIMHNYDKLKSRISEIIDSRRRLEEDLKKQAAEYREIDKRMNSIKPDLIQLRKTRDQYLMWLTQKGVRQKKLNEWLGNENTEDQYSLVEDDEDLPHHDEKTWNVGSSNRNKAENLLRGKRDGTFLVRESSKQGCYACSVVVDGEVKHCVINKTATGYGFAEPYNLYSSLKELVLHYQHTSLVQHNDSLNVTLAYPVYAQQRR

inhibition at 0.1 µM ([1]; compound at 0.1 μM) | inhibition at 0.1 µM (DNA-PK(h); compound at 0.1 μM) | inhibition at 0.01 µM [1] | inhibition at 0.01 µM (DNA-PK(h)) | inhibition at 0.1 µM ([1]; compound concentration 0.1 μM) | inhibition at 0.1 µM (DNA-PK(h); compound concentration 0.1 μM) | Structure (SMILES)
75% | 4% | – | – | – | – | C[C@H](Nc1ncnc2[nH]ccc(=O)c12)c1cc2cccc(-c3cnc(C(F)(F)F)nc3)c2c(=O)n1-c1ccccc1 [Example 385, (S)-4-((1-(1-oxo-2-phenyl-8-(2-(trifluoromethyl)pyrimidin-5-yl)-1,2-dihydroisoquinolin-3-yl)ethyl)amino)pyrido[2,3-d]pyrimidin-5(8H)-one]
85% | 40% | – | – | – | – | CCOc1ncc(-c2cccc3cc([C@H](C)Nc4ncnc5[nH]ccc(=O)c45)n(-c4ccccc4)c(=O)c23)cn1 [Example 384, (S)-4-((1-(8-(2-ethoxypyrimidin-5-yl)-1-oxo-2-phenyl-1,2-dihydroisoquinolin-3-yl)ethyl)amino)pyrido[2,3-d]pyrimidin-5(8H)-one]
29% | 46% | – | – | – | – | CCC[S@+]([O-])c1cccc2c(Cl)c([C@H](C)Nc3ncnc4[nH]ccc(=O)c34)n(-c3ccccc3)c(=O)c12 [Example 396, 4-(((S)-1-(4-chloro-1-oxo-2-phenyl-8-((S)-propylsulfinyl)-1,2-dihydroisoquinolin-3-yl)ethyl)amino)pyrido[2,3-d]pyrimidin-5(8H)-one]
– | – | 12% | 6% | – | – | C[C@H](Nc1ncnc2[nH]ccc(=O)c12)c1c(Cl)c2cccc(NS(=O)(=O)c3ccc(F)cc3)c2c(=O)n1-c1ccccc1 [Example 303, (S)—N(4-chloro-1-oxo-3-(1-((5-oxo-5,8-dihydropyrido[2,3-d]pyrimidin-4-yl)amino)ethyl)-2-phenyl-1,2-dihydroisoquinolin-8-yl)-4-fluorobenzenesulfonamide]
– | – | 76% | 25% | 96% | 75% | C[C@H](Nc1ncnc2[nH]ccc(=O)c12)c1c(Cl)c2cccc(C#Cc3ccc(N(C)C)cc3)c2c(=O)n1-c1ccccc1 [Example 314, (S)-4-((1-(4-chloro-8-((4-(dimethylamino)phenyl)ethynyl)-1-oxo-2-phenyl-1,2-dihydroisoquinolin-3-yl)ethyl)amino)-5-oxo-5,8-dihydropyrido[2,3-d]pyrimidin-5(8H)-one]
– | – | 41% | 14% | – | – | C[C@H](Nc1ncnc2[nH]ccc(=O)c12)c1c(Cl)c2cccc(NS(=O)(=O)C3CC3)c2c(=O)n1-c1ccccc1 [Example 301, (S)—N-(4-chloro-1-oxo-3-(1-((5-oxo-5,8-dihydropyrido[2,3-d]pyrimidin-4-yl)amino)ethyl)-2-phenyl-1,2-dihydroisoquinolin-8-yl)cyclopropanesulfonamide]
– | – | 62% | 34% | – | – | C[C@H](Nc1ncnc2[nH]ccc(=O)c12)c1c(Cl)c2cccc(C3NCCS3)c2c(=O)n1-c1ccccc1 (stereo partly drawn) [Example 356, 4-(((1S)-1-(4-chloro-1-oxo-2-phenyl-8-(thiazolidin-2-yl)-1,2-dihydroisoquinolin-3-yl)ethyl)amino)pyrido[2,3-d]pyrimidin-5(8H)-one]
7% | 47% | – | – | – | – | C[C@H](Nc1ncnc2[nH]ccc(=O)c12)c1c(Cl)c2cccc([S+]([O-])c3ncccn3)c2c(=O)n1-c1ccccc1 (stereo partly drawn) [Example 419, 4-(((1S)-1-(4-chloro-1-oxo-2-phenyl-8-(pyrimidin-2-ylsulfinyl)-1,2-dihydroisoquinolin-3-yl)ethyl)amino)pyrido[2,3-d]pyrimidin-5(8H)-one]

Further lines, the compound ahead of its results:

Structure (SMILES) | inhibition at 0.1 µM ([1]; compound at 0.1 μM) | inhibition at 0.1 µM (DNA-PK(h); compound at 0.1 μM) | inhibition at 0.01 µM [1] | inhibition at 0.01 µM (DNA-PK(h)) | inhibition at 0.1 µM ([1]; compound concentration 0.1 μM) | inhibition at 0.1 µM (DNA-PK(h); compound concentration 0.1 μM)
C[C@H](Nc1ncnc2[nH]ccc(=O)c12)c1c(Cl)c2cccc(-c3cnc(OC(C)(C)C)cn3)c2c(=O)n1-c1ccccc1 [Example 206, (S)-4-((1-(8-(5-(tert-butoxy)pyrazin-2-yl)-4-chloro-1-oxo-2-phenyl-1,2-dihydroisoquinolin-3-yl)ethyl)amino)pyrido[2,3-d]pyrimidin-5(8H)-one] | – | – | 45% | 29% | – | –
C[C@H](Nc1ncnc2[nH]ccc(=O)c12)c1c(Cl)c2cccc(NC(=O)C3CCC3)c2c(=O)n1-c1ccccc1 [Example 298, (S)—N-(4-chloro-1-oxo-3-(1-((5-oxo-5,8-dihydropyrido[2,3-d]pyrimidin-4-yl)amino)ethyl)-2-phenyl-1,2-dihydroisoquinolin-8-yl)cyclobutanecarboxamide] | – | – | 11% | 50% | – | –
C[C@H](Nc1ncnc2[nH]ccc(=O)c12)c1c(Cl)c2cccc(-c3ccc(C4CCN(C)CC4)cc3)c2c(=O)n1-c1ccccc1 [Example 130, (S)-4-((1-(4-chloro-8-(4-(1-methylpiperidin-4-yl)phenyl)-1-oxo-2-phenyl-1,2-dihydroisoquinolin-3-yl)ethyl)amino)pyrido[2,3-d]pyrimidin-5(8H)-one] | – | – | 85% | 98% | 89% | 102%
COc1cc(-c2cccc3c(Cl)c([C@H](C)Nc4ncnc5[nH]ccc(=O)c45)n(-c4ccccc4)c(=O)c23)ccc1Cl [Example 99, (S)-4-((1-(4-chloro-8-(4-chloro-3-methoxyphenyl)-1-oxo-2-phenyl-1,2-dihydroisoquinolin-3-yl)ethyl)amino)pyrido[2,3-d]pyrimidin-5(8H)-one] | – | – | 83% | 54% | 108% | 95%
C[C@H](Nc1ncnc2[nH]ccc(=O)c12)c1c(Cl)c2cccc(N3CCOCC3)c2c(=O)n1-c1ccccc1 [Example 251, (S)-4-((1-(4-chloro-8-morpholino-1-oxo-2-phenyl-1,2-dihydroisoquinolin-3-yl)ethyl)amino)pyrido[2,3-d]pyrimidin-5(8H)-one] | – | – | 65% | 6% | 109% | 60%
COc1ncc(-c2cccc3c(Cl)c([C@H](C)Nc4ncnc5[nH]ccc(=O)c45)n(-c4ccccc4)c(=O)c23)cc1F [Example 186, (S)-4-((1-(4-chloro-8-(5-fluoro-6-methoxypyridin-3-yl)-1-oxo-2-phenyl-1,2-dihydroisoquinolin-3-yl)ethyl)amino)pyrido[2,3-d]pyrimidin-5(8H)-one] | – | – | 94% | 49% | – | –
Cc1nc2ccc(-c3cccc4c(Cl)c([C@H](C)Nc5ncnc6[nH]ccc(=O)c56)n(-c5ccccc5)c(=O)c34)cc2o1 [Example 22, (S)-4-((1-(4-chloro-8-(2-methylbenzo[d]oxazol-6-yl)-1-oxo-2-phenyl-1,2-dihydroisoquinolin-3-yl)ethyl)amino)pyrido[2,3-d]pyrimidin-5(8H)-one] | – | – | 89% | 69% | 93% | 97%
C[C@H](Nc1ncnc2[nH]ccc(=O)c12)c1c(Cl)c2cccc(-c3cnc(C(F)(F)F)cn3)c2c(=O)n1-c1ccccc1 [Example 51, (S)-4-((1-(4-chloro-1-oxo-2-phenyl-8-(5-(trifluoromethyl)pyrazin-2-yl)-1,2-dihydroisoquinolin-3-yl)ethyl)amino)pyrido[2,3-d]pyrimidin-5(8H)-one] | – | – | 6% | -15% | – | –
C[C@H](Nc1ncnc2[nH]ccc(=O)c12)c1c(Cl)c2cccc(C3=NC(C)(C)CO3)c2c(=O)n1-c1ccccc1 [Example 289, (S)-4-((1-(4-chloro-8-(4,4-dimethyl-4,5-dihydrooxazol-2-yl)-1-oxo-2-phenyl-1,2-dihydroisoquinolin-3-yl)ethyl)amino)pyrido[2,3-d]pyrimidin-5(8H)-one] | – | – | 10% | 27% | – | –
C[C@H](Nc1ncnc2[nH]ccc(=O)c12)c1c(Cl)c2cccc(-c3cnc(CC#N)nc3)c2c(=O)n1-c1ccccc1 [Example 39, (S)-2-(5-(4-chloro-1-oxo-3-(1-((5-oxo-5,8-dihydropyrido[2,3-d]pyrimidin-4-yl)amino)ethyl)-2-phenyl-1,2-dihydroisoquinolin-8-yl)pyrimidin-2-yl)acetonitrile] | – | – | 47% | 57% | – | –
Cc1nc(-c2cccc3c(Cl)c([C@H](C)Nc4ncnc5[nH]ccc(=O)c45)n(-c4ccccc4)c(=O)c23)[nH]c1C [Example 288, (S)-4-((1-(4-chloro-8-(4,5-dimethyl-1H-imidazol-2-yl)-1-oxo-2-phenyl-1,2-dihydroisoquinolin-3-yl)ethyl)amino)pyrido[2,3-d]pyrimidin-5(8H)-one] | – | – | 28% | 8% | – | –
